# Assay results taken from US6949529B2, “Compositions containing lysophosphotidic acids which inhibit apoptosis and uses thereof” (Sky High, LLC, priority 1997, dated 2005).
# B1: Ovalbumin: source chicken egg (protein, UniProt P01012 2-386, looked up)
# Ovalbumin: GSIGAASMEFCFDVFKELKVHHANENIFYCPIAIMSALAMVYLGAKDSTRTQINKVVRFDKLPGFGDSIEAQCGTSVNVHSSLRDILNQITKPNDVYSFSLASRLYAEERYPILPEYLQCVKELYRGGLEPINFQTAADQARELINSWVESQTNGIIRNVLQPSSVDSQTAMVLVNAIVFKGLWEKAFKDEDTQAMPFRVTEQESKPVQMMYQIGLFRVASMASEKMKILELPFASGTMSMLVLLPDEVSGLEQLESIINFEKLTEWTSSNVMEERKIKVYLPRMKMEEKYNLTSVLMAMGITDVFSSSANLSGISSAESLKISQAVHAAHAEINEAGREVVGSAEAGVDAASVSEEFRADHPFLFCIKHIATNAVLFFGRCVSP
# B2: Myoglobin: source horse heart (protein, UniProt P68082 2-154, looked up)
# Myoglobin: GLSDGEWQQVLNVWGKVEADIAGHGQEVLIRLFTGHPETLEKFDKFKHLKTEAEMKASEDLKKHGTVVLTALGGILKKKGHHEAELKPLAQSHATKHKIPIKYLEFISDAIIHVLHSKHPGDFGADAQGAMTKALELFRNDIAAKYKELGFQG
# How the values were obtained:
# C3H/10T½ cells [1] = experiment: C3H/10T½ serum deprivation anti-apoptotic activity assay; type: cell-based; conditions: for Maximum effect relative to 18:1 LPA: LPA alone, 24 h serum deprivation, 18:1 LPA = 100%; for activity compared with lysophosphatidic acid: summary of Table 3
# Source text: In order to determine the apoptotic activity of the claimed invention, the following method of analysis was used. The-cell assay is described in detail in U.S. Pat. Nos. 5,637,486, 5,620,888, and 5,681,703, and Tomei et al. (1993) Proc Natl. Acad. Sci. 90:853-857. Briefly, mouse fibroblast C3H/10T½ cells (clone 8) were obtained from ATCC (Rockville, Md.) and were maintained in exponential growth phase in which the cell cycle is randomly distributed and no cells are arrested in G0, and in quiescence. Exponential growth phase was assured by seeding at 2000 cells per 1 ml (5 ml for a 60 mm culture plate) five days prior to the beginning of the experiment. Assays were performed on cells only up to passage 15. At T=0, cultures were transferred to serum-free medium, as an apoptosis stimulus, and seed extracts were added. Controls included 10-7 and 5×10^-8 M 12-O-tetradecanoyl phorbol-13-acetate (TPA) to ensure the responsiveness of the cell culture. The samples were added to serum free medium and sterile filtered prior to addition to the cultures. Assays were performed in triplicate or quadruplicate. Analyses of the cell responses were made between 18 and 28 hours of serum deprivation. Two assays were performed on each cell culture plate consisting of differential cell counts.
# 1. All non-adherent or loosely adherent cells were removed from the culture dish and counted by appropriate techniques, typically counting by electronic particle counting instrument. These are the apoptotic cells, the serum deprived released cells (SDR), released by the action of cultivation in serum-free medium. Approximately 95% of these released cells are apoptotic as shown by both ultrastructure analysis and DNA fragmentation analysis.
# 2. The remaining adherent cells (ADH) were exposed to a buffered, typically pH 7.3, balanced salt solution such as Hanks Balanced Salt Solution without calcium and magnesium salts containing 0.05% trypsin and 0.53 mM ethylene diaminetetraacetic acid (EDTA). Each culture was incubated at either room temperature or 37° C. on a rocking platform to ensure uniform distribution of the trypsin reagent over the culture surface. After a standardized period of time, typically 10 minutes, the released cells were removed from each culture dish and measured by the same means as described above, typically electronic particle counting. This ADH cell count is comprised of both trypsin resistant and trypsin sensitive cells as described in U.S. Pat. Nos. 5,637,486, 5,620,888, and 5,681,703.
# Anti-apoptotic activity is expressed in the following examples as the calculated concentration of material (μg/ml of media) required to save 50% of the cells released on serum free treatment.
# The ability of 18:1-LPA and other LPAs to protect serum-starved cells from apoptotic death was measured using the C3H/10T½ cell assay, performed as described in Example 2. The effect of various compounds on the ability of lysophosphatidic acid to protect serum-starved cells from apoptotic death was also measured. Log phase cells were seeded in 60 mm Petri dishes at 175-350 cells per cm2 and maintained in Basal Medium Eagle (BME) supplemented with 10% Heat Inactivated Fetal Bovine Serum (HIFBS). On day 3 the cells were given fresh media. Treatment began on day 5 when the media containing serum was removed and replaced with the LPA mixture to be tested. After 24 hours of treatment, day 6, serum deprived released (SDR) cells (the apoptotic cell population) and adherent (ADH) cells were separated and counted using an electronic cell counter Coulter Corporation, Hialea, Fla.). SDR cells were counted with the lower threshold setting at 6.3 μm and were defined as the apoptotic cells dying in response to cultivation in serum free media. Approximately 95% of the SDR cells were confirmed to be apoptotic as previously shown by size, ultrastructure and DNA fragmentation analysis. […]
# [2] = Electrophoresis radiobinding assay on native polyacrylamide gel; type: binding; conditions: 1 nM labeled 18:1-LPA/45 μg protein, 37° C., 60 minutes
# Method: Electrophoresis radiobinding assay. Proteins were analyzed on native polyacrylamide gels following incubation with ^3H-labeled 18:1-LPA. ^3H-labeled lysophosphatidic acid (1-oleyl) (DuPont NEN Products, Boston, Mass.) was added to tested proteins at 1 nM labeled 18:1-LPA/45 μg protein. Mixtures were incubated in a bicarbonate buffered saline/EDTA solution at 37° C. for 60 minutes. Incubated samples were mixed with native gel sample buffer (312 mM Tris pH 6.8, 50% glycerol, 0.05% bromophenol blue) and loaded entirely onto an 8% discontinuous native polyacrylamide gel. Following electrophoresis, proteins were fixed into the gels using an aqueous solution consisting of glacial acetic acid, 10% (vol/vol) and methanol 30% (vol./vol.) solution. Fixed gels were then incubated for 60 minutes in autoradiography enhancer (EN^3HANCE, DuPont NEN Products, Boston, Mass.), and dried onto 3M chromatography paper (Whatman, Clifton, N.J.) and exposed to autoradiography film (X-Omat, Kodak, Rochester, N.Y.) for 72 hours at −80° C.
# C3H/10T½ cells [3] = experiment: Effect of proteins on anti-apoptotic activity of soy LPA, C3H/10T½ cell assay; type: cell-based; conditions: for Protein + 10 μg/mL Soy LPA, percent cells saved from apoptosis: 1:10 soy-LPA to protein (weight:weight), 24 h serum deprivation; for enhancement of the anti-apoptotic activity of LPA: protein added together with soy-LPA
# Method: Soy derived LPA (soy-LPA) (Avanti® Polar Lipids, Inc., Alabaster, Ala.) was stored in an organic solution and was dried immediately prior to assay using a Speed Vac (Savant Instruments, Hicksville, N.Y.). Tested proteins were resuspended at 10 mg/mL in a bicarbonate buffered saline/EDTA solution (50 mM NH4HCO3, 104 mM NaCl, 250 μM EDTA) prior to being added to dried soy-LPA at a 1:10 soy-LPA to protein (weight:weight) ratio. The mixture was then sonicated for 5 minutes using a high power 80 Watt sonication bath (Laboratory Supplies Co., Hicksville, N.Y.). Following sonication, concentrated LPA/protein mixtures were left standing for 15 minutes at room temperature prior to dilution in cell culture assay media.
# The effect of various proteins on the ability of LPA to protect serum-starved cells from apoptotic death was measured using the C3H/10T½ cell assay, performed as described in Example 2, above. Log phase cells were seeded in 60 mm Petri dishes at 175-350 cells per cm^2 and maintained in Basal Medium Eagle (BME) supplemented with 10% fetal calf serum (Hyclone, Logan, Utah). At time zero, serum containing media was replaced with sterile filtered BME containing the LPA/protein mixture to be tested. After 24 hours of treatment, serum deprived release (SDR) cells (the apoptotic cell population) and adherent (ADH) cells were separated and counted using an electronic cell counter (Coulter Corporation, Hialea, Fla.). SDR cells were counted with the lower threshold setting at 6.3 μm and were defined as the apoptotic cells dying in response to cultivation in serum-free-media. Approximately 95% of the SDR cells are confirmed to be apoptotic as previously shown by size, ultrastructure and DNA fragmentation analysis. Adherent cells were removed by treatment with a Hanks' balanced salt solution containing 0.05% trypsin and 0.53 mM EDTA and were counted with the lower threshold setting at 11.01 μm. All samples were tested in triplicate and serum-deprived controls (BME only) were assayed at both the beginning and end of each experiment.
# The effects of various proteins alone or in combination with LPA are expressed as percent cells saved from apoptosis. When C3H10T½ cells were treated with 10 μg/mL soy LPA without protein, 8.0% of the cells were saved. The degree of protection from apoptosis afforded by protein alone, added to the medium at a concentration of 0.1% (wt/vol.), varied from 0.9% to 27.7% of cells saved from apoptosis. An unusually high percentage of cells were protected from serum-starvation-induced apoptosis by casein. This value may be artificially high, as casein preparations have been known to contain growth factors, including insulin-like growth factors (IGF) IGF1 and IGF2. IGF2 is a mitogen that can mask the serum deprivation-induced apoptotic response in these cells.
# [4] = Size shift assay on Superdex S75 column; type: binding; conditions: soy LPA with 0.5 μCi ^3H-labeled 18:1-LPA, with test protein
# Method: Size shift assay. Size analysis of LPA both with and without protein was performed using a Superdex® S75 column (Pharmacia Biotech, Uppsala, Sweden). Soy LPA was combined in a chloroform solution with 0.5 μCi ^3H-labeled 18:1-LPA (DuPont NEN Products, Boston, Mass.), dried under vacuum and resuspended by sonication in a buffered solution (50 mM ammonium bicarbonate, 154 mM sodium chloride, pH 8.0) in the presence or absence of test protein. The ammonium bicarbonate/sodium chloride solution was used as the mobile phase at a flow rate of 1 ml/min. One-minute fractions were collected for 30 minutes following sample injection. Fractions were counted in scintillant solution using a liquid scintillation counter (Beckman Instruments, Irvine, Calif.). Calibration was performed using a standard solution containing purified proteins (BioRad, Hercules, Calif.).
# [5] = compounds exhibiting toxicity, Table 3 column Concentration for Max Effect
molecule,measurement,setting,value
"CCCCCCCCCCCCCCOCC(O)COP(=O)(OC)OC (racemic) [Compound 3, Dimethyl 3-O-tetradecyl-rac-glycero-1-phosphate]",Maximum effect relative to 18:1 LPA,C3H/10T½ cells [1],Toxic
same,lowest concentration at which cytotoxic effects were observed,C3H/10T½ cells [1]; [5],30 µM
"CCCCCCCCCCCCCCOCC(O)COP(=O)(O)O (racemic) [Compound 4, 3-O-Tetradecyl-rac-glycero-1-phosphate]",Maximum effect relative to 18:1 LPA,C3H/10T½ cells [1],Toxic
same,lowest concentration at which cytotoxic effects were observed,"C3H/10T½ cells [1]; mouse, 24 h",10 µM
"CCCCCCCC/C=C\CCCCCCCC(=O)OCC(COP(O)(O)=S)OC (racemic) [Compound 48, 3-O-Oleoyl-2-O-methyl-rac-glycero-1-thiophosphate]",activity compared with lysophosphatidic acid,C3H/10T½ cells [1],significantly higher than lysophosphatidic acid
"CCCCCCCC/C=C\CCCCCCCCOCC(COP(O)(O)=S)OC (racemic) [Compound 66, 3-O-Oleyl-2-O-methyl-rac-glycero-1-thiophosphate]",activity compared with lysophosphatidic acid,C3H/10T½ cells [1],significantly higher than lysophosphatidic acid
"CCCCCCCC/C=C\CCCCCCCCOC(=O)C(COP(O)(O)=S)OC (racemic) [Compound 78, Oleyl 1-thiophosphoryl-2-O-methyl-rac-glycerate]",activity compared with lysophosphatidic acid,C3H/10T½ cells [1],significantly higher than lysophosphatidic acid
"CCCCCCCCCCCCCCOCC1CO1 (stereo not shown) [Compound 8, 1-O-Tetradecyl-glycidol]",Maximum effect relative to 18:1 LPA,C3H/10T½ cells [1],Toxic
same,lowest concentration at which cytotoxic effects were observed,C3H/10T½ cells [1]; [5],30 µM
"CCCCCCCC/C=C\CCCCCCCC(=O)NCCOP(=O)(OC)OC [Compound 59, Dimethyl 2-amino-2-N-oleoyl-ethyl phosphate]",Maximum effect relative to 18:1 LPA,C3H/10T½ cells [1],Toxic
same,lowest concentration at which cytotoxic effects were observed,C3H/10T½ cells [1]; [5],30 µM
Acyl Carrier Protein: source E. coli,Detectable Acrylamide Gel ^3H LPA Binding (+/−),[2],did not yield detectable bands
same,"Protein + 10 μg/mL Soy LPA, percent cells saved from apoptosis",C3H/10T½ cells [3],36.2%
Albumin (Fatty Acid Depleted): fatty acid depleted (FAD) bovine serum albumin (BSA),Detectable Acrylamide Gel ^3H LPA Binding (+/−),[2],bind to 18:1-LPA
same,"Protein + 10 μg/mL Soy LPA, percent cells saved from apoptosis",C3H/10T½ cells [3],58.7%
same,3H-LPA Size Shift Analysis (+/−),[4],most of the LPA was bound to BSA
Casein,"Protein + 10 μg/mL Soy LPA, percent cells saved from apoptosis",C3H/10T½ cells [3],84.3%
Cytochrome C: source bovine heart,"Protein + 10 μg/mL Soy LPA, percent cells saved from apoptosis",C3H/10T½ cells [3],54.6%
same,3H-LPA Size Shift Analysis (+/−),[4],LPA does not bind to this protein
Dimethyl 3-amino-3-N-oleoyl-propyl phosphate [Compound 53],Maximum effect relative to 18:1 LPA,C3H/10T½ cells [1],Toxic
same,lowest concentration at which cytotoxic effects were observed,C3H/10T½ cells [1]; [5],100 µM
Myelin Basic Protein,"Protein + 10 μg/mL Soy LPA, percent cells saved from apoptosis",C3H/10T½ cells [3],17.0%
same,enhancement of the anti-apoptotic activity of LPA,C3H/10T½ cells [3],did not enhance
"Phosphatidylserine [Phosphatidylserine (PS), reference compound]",toxicity to serum-deprived cells,C3H/10T½ cells [1]; PS alone (FIG. 2),slightly toxic
B1,Detectable Acrylamide Gel ^3H LPA Binding (+/−),[2],detectable band
same,"Protein + 10 μg/mL Soy LPA, percent cells saved from apoptosis",C3H/10T½ cells [3],15.1%
same,enhancement of the anti-apoptotic activity of LPA,C3H/10T½ cells [3],did not enhance
B2,"Protein + 10 μg/mL Soy LPA, percent cells saved from apoptosis",C3H/10T½ cells [3],27.8%
